Test results taken from ChEMBL document CHEMBL1156829 (Proc Natl Acad Sci U S A, 2008).
“And” between values parts separate entries of the source, which are not always exact repeats. Equal entries are not always repeated.

Assays:
[1] = NOVARTIS: Cytotoxicity against human hepatocellular carcinoma cell line (Huh7); assay type: toxicity, cell-based, Huh-7; conditions: Huh7 cells (hepatocellular carcinoma cell line)
[2] = tested on: Plasmodium falciparum; assay: NOVARTIS: Inhibition of Plasmodium falciparum W2 (drug-resistant) proliferation in erythrocyte-based infection assay; assay type: functional, organism-based; conditions: read-out: EC50
[3] = tested on: Plasmodium falciparum; assay: NOVARTIS: Inhibition of Plasmodium falciparum 3D7 (drug-susceptible) proliferation in erythrocyte-based infection assay; assay type: functional, organism-based

Row | Structure (SMILES) | CC50 [1] [µM] | EC50 ([2]; Plasmodium falciparum, W2) [µM] | EC50 ([3]; Plasmodium falciparum, 3D7) [µM] | EC50 [2] [µM] | EC50 [3]
1 | COc1ccc(Nc2nc(NN=Cc3cccc(I)c3)nc(Nc3ccc([N+](=O)[O-])cc3)n2)cc1 | > 11.7 | 0.454 | 0.305 |  | 
2 | CCCn1cc(SCC(=O)NCc2ccco2)c2ccccc21 | > 100 | 0.673 | 1.02 |  | 
3 | CC(C)CN(C(C)C(=O)NC(CN1CCCC1)c1ccccc1)S(=O)(=O)Cc1ccccc1 (stereo not drawn) | > 10 | 0.0767 | 0.0602 |  | 
4 | CCCCCCCc1ccc(-c2nnc(-c3ccc([N+](=O)[O-])cc3)o2)cc1 | > 10 | > 0.459 | > 1.25 |  | 
5 | CCOC(=O)c1cc(S(=O)(=O)NCc2ccc(F)cc2)n[nH]1 | > 10 | 0.0881 | > 0.847 |  | 
6 | CCOC(=O)c1ccc(NC(=O)c2ccc(S(=O)(=O)N3CC(C)CC(C)C3)cc2)cc1 (stereo not drawn) | > 100 | 1.24 | 0.666 |  | 
7 | COc1cccc(C=NNC(=O)CSc2ccccc2C)c1O | > 100 | 1.96 | 7.94 |  | 
8 | CCCCCC(=O)Oc1ccccc1-c1nc2ccccn2c1NC(C)(C)CC(C)(C)C | > 10 | 0.0195 | 0.701 |  | 
9 | O=C1c2ccccc2-c2nnc(-c3ccccc3)cc21 | > 10 | 0.392 | 0.268 |  | 
10 | CCCN(CCC)CCNC(=O)c1cc2c(-c3ccc(Cl)cc3)nn(C)c2s1 | 45.8 | 0.703 | 0.253 |  | 
11 | CCN(CC)CCN(Cc1cc2c(C)cc(C)cc2[nH]c1=O)C(=S)NCCCN(C)C | > 76.3 | 0.723 | 1.85 |  | 
12 | CC1(C)C2CCC(C2)C1(C)NC(=S)NN=Cc1ccccn1 (stereo not drawn) | 54.7 | 0.0382 | 0.0348 |  | 
13 | Cc1cccc(-c2cc3nc(C)c(C)c(O)n3n2)c1 | > 100 | 7.54 | > 9.72 |  | 
14 | CCOC(=O)N1CCN(C(=O)c2cnc3ccc(C)cn3c2=O)CC1 | > 10 | > 1.66 | > 0.355 |  | 
15 | CC1Cc2ccc(F)cc2CN1C(=O)c1ccc(COc2ccccc2Br)o1 (stereo not drawn) | > 100 | 6.35 | 8.37 |  | 
16 | COC(=O)c1ccc(S(=O)(=O)N2CCC3(CC2)Nc2ccccc2-n2cccc23)cc1 | > 10 | > 0.163 | > 1.25 |  | 
17 | Cc1ccc(C=NNC(=O)c2nnn(-c3nonc3N)c2-c2ccc([N+](=O)[O-])cc2)cc1 | > 73 | 0.503 | 0.204 |  | 

Row | Structure (SMILES) | CC50 [1] [µM] | EC50 ([2]; Plasmodium falciparum, W2) [µM] | EC50 ([3]; Plasmodium falciparum, 3D7) [µM] | EC50 [2] [µM] | EC50 [3]
18 | CCOC(=O)c1cnc2ccc(OC)cc2c1O | > 100 | 1.3 |  | 0.721 | 0.727 µM and 0.245 µM
19 | CN1CCN(c2nc(Nc3ccc(O)cc3)nc3ccccc23)CC1 | 41.8 | 0.443 | 0.626 |  | 
20 | COc1cc2c(cc1OC)C(CCCCCl)=NC(C)(C)C2 | > 100 | > 12.5 | 0.343 |  | 
21 | Cc1cc(C)c2c(c1)-c1c(ssc1=S)C(C)(C)N2C(=O)c1ccccc1 | > 100 | 0.37 | 0.523 |  | 
22 | CCN1CCN(c2nc3ccccn3c(=O)c2C=C2SC(=S)N(C(C)C)C2=O)CC1 | 79 | 0.304 | 0.701 |  | 
23 | CCCC(C(=O)NC(C)(C)C)N1C(=O)c2cc(NC(C)=O)ccc2NC(=O)[C@@H]1c1ccccc1 (stereo partly drawn) | 5.45 | > 0.79 | > 0.0656 |  | 
24 | Clc1ccc2[nH]c3c(NCCC4=CCCCC4)ncnc3c2c1 | 15.8 | 2 | 0.988 |  | 
25 | CC(=O)N(C1=C(N2CCOCC2)C(=O)c2ccccc2C1=O)c1ccc(C(C)C)c(C)c1 | 9.15 | 0.0881 | 0.0256 |  | 
26 | CCOc1ccc2ncc(S(=O)(=O)c3ccc(OC)cc3)c(N3CCN(C)CC3)c2c1 | > 100 | 2.08 | 0.1 |  | 
27 | NCCCNC(=O)COC(c1ccccc1)c1cccnc1Cl (stereo not drawn) | > 10 | 0.1 | 0.0817 |  | 
28 | COc1ccc(C2Sc3ccccc3N=C3C2=C(O)c2ccccc23)cc1 (stereo not drawn) | > 100 | 0.175 | 0.238 |  | 
29 | Cc1noc(C)c1S(=O)(=O)N(CC(C)C)C(C(=O)NC(CN1CCCC1)c1ccccc1)c1ccccc1 (stereo not drawn) | 2.82 | 1.66 | 0.775 |  | 
30 | COc1ccc(NC(=O)C2c3ccccc3C(=O)N(C3CCCC3)C2c2cccs2)cc1Cl (stereo not drawn) | > 100 | 0.107 | 0.128 |  | 
31 | CC(C)Cc1nc(N2CCOCC2)c2nnn(Cc3ccccc3)c2n1 | > 100 | 1.65 | 3.03 |  | 
32 | c1ccc(Nc2nc(-c3ccccn3)cs2)nc1 | 18.6 | 0.0585 | 0.114 |  | 
33 | CC(C)CSc1nc2sc3c(c2c(=O)n1-c1ccccc1)CCN(Cc1ccccc1)C3 | > 100 | 0.392 | 0.945 |  | 
34 | CSc1nccc(-c2cc(F)cc3c2OC(CNC(=O)C2CC(=O)c4ccccc42)C3)n1 (stereo not drawn) | > 10 | > 0.969 | 1.8 |  | 
